The subject of assay [1] is Aβ40 in conditioned medium of cells stably expressing Amyloid Precursor Protein (APP). The assay is described as follows: In vitro BACE cell-based assay (Aβ40 in conditioned medium, sandwich ELISA). The note with it: Homo sapiens, HEK293, average IC50; read-out: HEK cell assay. The method in brief: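 Step two: 10-point compound titration added, starting 100 μM or 10 μM, 0.1% DMSO. Step three: medium Aβ40 measured by ELISA, capture 3 h and detection 2 h at 4° C, TRF read.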
A general note: ELISA stands for enzyme-linked immunosorbent assay.

Assay [2] concerns the target Beta Secretase enzyme (BACE) (Homo sapiens, UniProt P56817). The assay is described as follows: In vitro enzymatic BACE FRET (fluorescence resonance energy transfer) assay. It is filed as biochemical. The note with it: average IC50, enzyme assay; read-out: BACE 1 FRET assay. The method in brief:
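Run in 0.05 M acetate pH 4.2 with 10% DMSO final and 100 uM genapol; started by adding 50 nM FRET peptide substrate (fluorophore and quencher flanking the cleavage site), incubated one hour, then stopped with Tris to neutral pH before reading fluorescence.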

Chain of Beta Secretase enzyme (BACE) (P56817 46-501, species assumed): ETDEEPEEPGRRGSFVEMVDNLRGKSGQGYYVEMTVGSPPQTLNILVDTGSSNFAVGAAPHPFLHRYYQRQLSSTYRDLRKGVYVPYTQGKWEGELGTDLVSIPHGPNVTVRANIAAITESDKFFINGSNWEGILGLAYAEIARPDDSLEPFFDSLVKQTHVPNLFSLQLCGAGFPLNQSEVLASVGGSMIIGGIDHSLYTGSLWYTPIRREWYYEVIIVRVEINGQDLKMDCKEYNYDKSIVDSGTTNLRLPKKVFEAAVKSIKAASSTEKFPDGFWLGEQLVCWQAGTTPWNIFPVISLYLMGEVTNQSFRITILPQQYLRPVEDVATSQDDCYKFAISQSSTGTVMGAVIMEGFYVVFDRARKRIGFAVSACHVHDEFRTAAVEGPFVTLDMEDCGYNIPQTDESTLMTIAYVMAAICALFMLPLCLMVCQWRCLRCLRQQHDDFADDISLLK

For the compound `Cc1cc(-c2ccc3c(c2)[C@@]2(COC(N)=N2)c2cc(-c4ccncc4)ncc2O3)cnc1F` [Example 229, (5S)-7-(6-fluoro-5-methyl-3-pyridinyl)-3-(4-pyridinyl)spiro[chromeno[2,3-c]pyridine-5,4′-[1,3]oxazol]-2′-amine], the IC50 was determined as 0.0604 µM in assay [1] and 0.0128 µM in assay [2].

In the case of `Cc1cc(-c2ccc3c(c2)[C@@]2(COC(N)=N2)c2cc(-c4cccnc4)ncc2O3)cnc1F` [Example 230, (5S)-7-(6-fluoro-5-methyl-3-pyridinyl)-3-(3-pyridinyl)spiro[chromeno[2,3-c]pyridine-5,4′-[1,3]oxazol]-2′-amine], the IC50 in assay [1] came out at 0.0363 µM; in assay [2], 0.0081 µM.

With `NC1=N[C@@]2(CO1)c1cc(-c3cncc(C4=CCOCC4)c3)ccc1Oc1cnc(C3=CCOCC3)cc12` [Example 231, (5S)-3-(3,6-dihydro-2H-pyran-4-yl)-7-(5-(3,6-dihydro-2H-pyran-4-yl)-3-pyridinyl)spiro[chromeno[2,3-c]pyridine-5,4′-[1,3]oxazol]-2′-amine], the values for the IC50 in assay [1] and in assay [2] were 0.106 µM and 0.034 µM, respectively.

With `Cn1cc(-c2cc3c(cn2)Oc2ccc(-c4cncc(Cl)c4)cc2[C@@]32COC(N)=N2)cn1` [Example 232, (5S)-7-(5-chloro-3-pyridinyl)-3-(1-methyl-1H-pyrazol-4-yl)spiro[chromeno[2,3-c]pyridine-5,4′-[1,3]oxazol]-2′-amine], the IC50 was 0.0074 µM in assay [1] and 0.0013 µM in assay [2].

With `Cn1cc(-c2cncc(-c3ccc4c(c3)[C@@]3(COC(N)=N3)c3cc(-c5cnn(C)c5)ncc3O4)c2)cn1` [Example 233, (5S)-3-(1-methyl-1H-pyrazol-4-yl)-7-(5-(1-methyl-1H-pyrazol-4-yl)-3-pyridinyl)spiro[chromeno[2,3-c]pyridine-5,4′-[1,3]oxazol]-2′-amine], the IC50 stood at 0.092 µM in assay [1] and 0.028 µM in assay [2].

As for `NC1=N[C@]2(CO1)c1cc(-c3cccc(Cl)c3)ccc1Oc1cnc(C3=CCOCC3)cc12` [Example 234, (5R)-7-(3-chlorophenyl)-3-(3,6-dihydro-2H-pyran-4-yl)spiro[chromeno[2,3-c]pyridine-5,4′-[1,3]oxazol]-2′-amine], the IC50 in assay [1] stood at 4.28 µM; in assay [2] it was 0.49 µM.

Consider `COc1ncc(Cl)cc1-c1ccc2c(c1)[C@@]1(COC(N)=N1)c1cc(C3=CCOCC3)ncc1O2` [Example 235, (5S)-7-(5-chloro-2-methoxy-3-pyridinyl)-3-(3,6-dihydro-2H-pyran-4-yl)spiro[chromeno[2,3-c]pyridine-5,4′-[1,3]oxazol]-2′-amine], for which the IC50 in assay [1] amounted to 0.0147 µM; in assay [2], 0.0012 µM.

For the compound `Cc1ccnc(F)c1-c1ccc2c(c1)[C@@]1(COC(N)=N1)c1cc(-c3ccnc(F)c3)ncc1O2` [Example 237, (5S)-7-(2-fluoro-4-methyl-3-pyridinyl)-3-(2-fluoro-4-pyridinyl)spiro[chromeno[2,3-c]pyridine-5,4′-[1,3]oxazol]-2′-amine], the IC50 in assay [1] turned out to be 0.0224 µM; in assay [2], 0.0016 µM.

As for `NC1=N[C@@]2(CO1)c1cc(-c3ccccc3)ccc1Oc1cnc(C3CCOCC3)cc12` [Example 238, (5S)-7-phenyl-3-(tetrahydro-2H-pyran-4-yl)spiro[chromeno[2,3-c]pyridine-5,4′-[1,3]oxazol]-2′-amine], the IC50 in assay [1] amounted to 0.164 µM; in assay [2], 0.0407 µM.

As for `COc1ncccc1-c1ccc2c(c1)[C@@]1(COC(N)=N1)c1cc(-c3ccnc(F)c3)ncc1O2` [Example 239, (5S)-3-(2-fluoro-4-pyridinyl)-7-(2-methoxy-3-pyridinyl)spiro[chromeno[2,3-c]pyridine-5,4′-[1,3]oxazol]-2′-amine], the IC50 in assay [1] amounted to 0.389 µM; in assay [2], 0.0335 µM.

For `COc1ncccc1-c1ccc2c(c1)[C@@]1(COC(N)=N1)c1cc(C3=CCOCC3)ncc1O2` [Example 240, (5S)-3-(3,6-dihydro-2H-pyran-4-yl)-7-(2-methoxy-3-pyridinyl)spiro[chromeno[2,3-c]pyridine-5,4′-[1,3]oxazol]-2′-amine], the IC50 in assay [1] was found to be 0.108 µM; in assay [2], 0.0173 µM.

Consider `NC1=N[C@@]2(CO1)c1cc(-c3cccc(Cl)c3)ccc1Oc1cnc(C3CCOCC3)cc12` [Example 241, (5S)-7-(3-chlorophenyl)-3-(tetrahydro-2H-pyran-4-yl)spiro[chromeno[2,3-c]pyridine-5,4′-[1,3]oxazol]-2′-amine], for which the IC50 in assay [1] turned out to be 0.0629 µM; in assay [2] it was 0.0034 µM.

With `NC1=N[C@@]2(CO1)c1cc(-c3cncc(Cl)c3)ccc1Oc1cnc(C3CCOCC3)cc12` [Example 242, (5S)-7-(5-chloro-3-pyridinyl)-3-(tetrahydro-2H-pyran-4-yl)spiro[chromeno[2,3-c]pyridine-5,4′-[1,3]oxazol]-2′-amine], the results for the IC50 in assay [1] and in assay [2] were 0.0211 µM and 0.0031 µM, respectively.

In the case of `Cn1cc(-c2cccc(-c3ccc4c(c3)[C@@]3(COC(N)=N3)c3cc(C5=CCOCC5)ncc3O4)c2)cn1` [Example 243, (5S)-3-(3,6-dihydro-2H-pyran-4-yl)-7-(3-(1-methyl-1H-pyrazol-4-yl)phenyl)spiro[chromeno[2,3-c]pyridine-5,4′-[1,3]oxazol]-2′-amine], the IC50 in assay [1] was 0.287 µM; in assay [2] it was 0.0195 µM.

For `CCn1cc(-c2cccc(-c3ccc4c(c3)[C@@]3(COC(N)=N3)c3cc(C5=CCOCC5)ncc3O4)c2)cn1` [Example 244, (5S)-3-(3,6-dihydro-2H-pyran-4-yl)-7-(3-(1-ethyl-1H-pyrazol-4-yl)phenyl)spiro[chromeno[2,3-c]pyridine-5,4′-[1,3]oxazol]-2′-amine], the IC50 in assay [1] was determined as 0.326 µM; in assay [2] it was 0.0537 µM.

In the case of `Cc1noc(C)c1-c1cccc(-c2ccc3c(c2)[C@@]2(COC(N)=N2)c2cc(C4=CCOCC4)ncc2O3)c1` [Example 245, (5S)-3-(3,6-dihydro-2H-pyran-4-yl)-7-(3-(3,5-dimethyl-4-isoxazolyl)phenyl)spiro[chromeno[2,3-c]pyridine-5,4′-[1,3]oxazol]-2′-amine], the IC50 in assay [1] was 0.529 µM; in assay [2] it was 0.023 µM.

With `Cc1cnccc1-c1cc2c(cn1)Oc1ccc(-c3cccnc3F)cc1[C@@]21COC(N)=N1` [Example 246, (5S)-7-(2-fluoro-3-pyridinyl)-3-(3-methyl-4-pyridinyl)spiro[chromeno[2,3-c]pyridine-5,4′-[1,3]oxazol]-2′-amine], the results for the IC50 in assay [1] and in assay [2] were 0.291 µM and 0.0542 µM, respectively.

As to `Cc1ncccc1-c1ccc2c(c1)[C@@]1(COC(N)=N1)c1cc(C3=CCOCC3)ncc1O2` [Example 247, (5S)-3-(3,6-dihydro-2H-pyran-4-yl)-7-(2-methyl-3-pyridinyl)spiro[chromeno[2,3-c]pyridine-5,4′-[1,3]oxazol]-2′-amine], the IC50 was 0.0455 µM in assay [1] and 0.0449 µM in assay [2].

As to `Cc1ncccc1-c1ccc2c(c1)[C@@]1(COC(N)=N1)c1cc(-c3ccnc(F)c3)ncc1O2` [Example 248, (5S)-3-(2-fluoro-4-pyridinyl)-7-(2-methyl-3-pyridinyl)spiro[chromeno[2,3-c]pyridine-5,4′-[1,3]oxazol]-2′-amine], the IC50 is 0.191 µM in assay [1] and 0.0991 µM in assay [2].

In the case of `Cc1nc(F)ccc1-c1ccc2c(c1)[C@@]1(COC(N)=N1)c1cc(C3=CCOCC3)ncc1O2` [Example 251, (5S)-3-(3,6-dihydro-2H-pyran-4-yl)-7-(6-fluoro-2-methyl-3-pyridinyl)spiro[chromeno[2,3-c]pyridine-5,4′-[1,3]oxazol]-2′-amine], the IC50 worked out at 0.271 µM in assay [1] and 0.0268 µM in assay [2].

Turning to `Cc1nc(F)ccc1-c1ccc2c(c1)[C@@]1(COC(N)=N1)c1cc(-c3ccnc(F)c3)ncc1O2` [Example 252, (5S)-7-(6-fluoro-2-methyl-3-pyridinyl)-3-(2-fluoro-4-pyridinyl)spiro[chromeno[2,3-c]pyridine-5,4′-[1,3]oxazol]-2′-amine], the IC50 came to 0.548 µM in assay [1] and 0.0661 µM in assay [2].

Regarding `Cc1ccc(-c2ccc3c(c2)[C@@]2(COC(N)=N2)c2cc(C4=CCOCC4)ncc2O3)c(F)n1` [Example 253, (5S)-3-(3,6-dihydro-2H-pyran-4-yl)-7-(2-fluoro-6-methyl-3-pyridinyl)spiro[chromeno[2,3-c]pyridine-5,4′-[1,3]oxazol]-2′-amine], the IC50 in assay [1] worked out at 0.32 µM; in assay [2] it was 0.036 µM.

Take `Cc1ccc(-c2ccc3c(c2)[C@@]2(COC(N)=N2)c2cc(-c4ccnc(F)c4)ncc2O3)c(F)n1` [Example 254, (5S)-7-(2-fluoro-6-methyl-3-pyridinyl)-3-(2-fluoro-4-pyridinyl)spiro[chromeno[2,3-c]pyridine-5,4′-[1,3]oxazol]-2′-amine]: the IC50 came to 1.07 µM in assay [1] and 0.0545 µM in assay [2].

As to `Cc1nn(C)cc1-c1cccc(-c2ccc3c(c2)[C@@]2(COC(N)=N2)c2cc(C4=CCOCC4)ncc2O3)c1` [Example 255, (5S)-3-(3,6-dihydro-2H-pyran-4-yl)-7-(3-(1,3-dimethyl-1H-pyrazol-4-yl)phenyl)spiro[chromeno[2,3-c]pyridine-5,4′-[1,3]oxazol]-2′-amine], the IC50 in assay [1] was found to be 0.565 µM; in assay [2] it was 0.0223 µM.

As for `CC(C)(C#N)COc1cc(F)c2c(c1)[C@]1(COC(N)=N1)c1cc(-c3cccnc3)ccc1O2` [Example 257, 3-(((4S)-2-amino-4′-fluoro-7′-(3-pyridinyl)spiro[1,3-oxazole-4,9′-xanthen]-2′-yl)oxy)-2,2-dimethylpropanenitrile], the IC50 in assay [1] was determined as 0.0063 µM; in assay [2], 0.001 µM.

As to `NC1=N[C@@]2(CO1)c1cc(-c3ccc(F)nc3)ccc1Oc1c(F)cc(OCC3CCOCC3)cc12` [Example 258, (4S)-4′-fluoro-7′-(6-fluoro-3-pyridinyl)-2′-(tetrahydro-2H-pyran-4-ylmethoxy)spiro[1,3-oxazole-4,9′-xanthen]-2-amine], the IC50 in assay [1] came out at 0.0304 µM; in assay [2] it was 0.006 µM.

The record behind these values is US8883782B2, “Spiro-tetracyclic ring compounds as beta-secretase modulators and methods of use” (Amgen Inc., priority 2010, dated 2014).
